“And” between values parts separate entries of the source, which are not always exact repeats. Equal values may be shown once.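 Values below derive from 48-hour exposures of cells grown in 96-well plates, with endpoints linearly interpolated between the two concentrations bracketing the appropriate inhibition level. At the GI50, growth is halved. The concentration for full growth arrest is given as TGI.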
How the values were obtained:
Experiment in all cases: inhibition of tumour cell growth, NCI panel, 48 h
[1] = test system: NCI-H460 lung
[2] = test system: SR leukemia
[3] = test system: HCT-15 colon
[4] = test system: U251 CNS
[5] = test system: PC-3 prostate
[6] = test system: NCI-H522 lung
[7] = test system: A498 renal
[8] = test system: SK-OV-3 ovarian
[9] = test system: SK-MEL-2 melanoma
[10] = test system: LOX IMVI melanoma

Structure (SMILES)	GI50 [1]	TGI [1]	GI50 [2]	TGI [2]	GI50 [3]	TGI [3]	GI50 [4]	TGI [4]	GI50 [5]	TGI [5]	GI50 [6]	TGI [6]	GI50 [7]	TGI [7]	GI50 [8]	TGI [8]	GI50 [9]	TGI [9]	GI50 [10]	TGI [10]
Cc1c(O)cccc1C(=O)N[C@@H](CSc1ccccc1)[C@H](O)CN1C[C@H]2CCCC[C@H]2C[C@H]1C(=O)NC(C)(C)C	3.48 µM and 4.79 µM	13.8 µM and 11.4 µM	2.21 µM	5.48 µM	1.77 µM and 3.11 µM	13.2 µM and 12.9 µM	3.79 µM and 4.25 µM	14.5 µM and 14.7 µM	2.95 µM and 3.94 µM	11.1 µM and > 35.1 µM	3.06 µM and 2.94 µM	11.7 µM and 13.4 µM	10.5 µM and 4.26 µM	24.9 µM and 15.3 µM	4.29 µM and 9.5 µM	23.9 µM and > 59.7 µM	5.63 µM and 5.26 µM	> 100 µM and 25.4 µM	5.27 µM and 5.39 µM	18.8 µM and 15.8 µM
COC(=O)C1C(C(=O)O)C2(c3ccccc3)C(=O)C1(c1ccccc1)C(c1ccc(OC)cc1)=C2c1ccc(OC)cc1 (stereo not drawn)	13.7 µM	31 µM	27.2 µM	63 µM	38.6 µM	> 100 µM	36.6 µM	> 100 µM	13 µM	31.3 µM	17 µM	41.9 µM	23.2 µM	46.2 µM	25.3 µM	59.4 µM	20.5 µM	44 µM	33.2 µM	> 100 µM
c1cc[n+](Cc2c3ccccc3cc3c2ccc2ccccc23)cc1	3.26 µM	11.9 µM	2.64 µM	11.6 µM	> 100 µM	> 100 µM	1.1 µM	6.37 µM	2.8 µM	14.4 µM	1.68 µM	5.31 µM	14.4 µM	40.9 µM	13.6 µM	59.1 µM	2.14 µM	4.69 µM	3.72 µM	15.8 µM
CC1(C)N=C(N)N=C(N)N1c1ccc(OCC(=O)Nc2ccc(S(=O)(=O)F)cc2Cl)c(Cl)c1	0.591 µM	> 100 µM	0.82 µM	> 100 µM	4.15 µM	> 100 µM	5.73 µM	> 100 µM	0.65 µM	> 100 µM	7.09 µM	> 100 µM	13.3 µM	> 100 µM	> 100 µM	> 100 µM	> 100 µM	> 100 µM	1.12 µM	> 100 µM
COc1ccc2[nH]c(C(=O)OCc3ccc4c(Br)cc(Br)c(O)c4n3)cc2c1	1.48 µM	3.18 µM	0.293 µM	2.04 µM	0.355 µM	1.23 µM	1.49 µM	2.92 µM	0.73 µM	2.27 µM	0.395 µM	1.82 µM	1.8 µM	3.31 µM	3.16 µM	14.4 µM	1.55 µM	3.12 µM	0.188 µM	0.453 µM
CS(=O)(=O)N1CCC(Nc2ncc(C(=O)c3c(F)cccc3F)c(N)n2)CC1	4.25 µM	> 25 µM	3.79 µM	> 18.5 µM	11.8 µM	> 25 µM	6.33 µM	> 25 µM	4.8 µM	> 25 µM	> 13.1 µM	> 25 µM	9.15 µM	> 25 µM	> 25 µM	> 25 µM	> 20.9 µM	> 25 µM	9.9 µM	> 25 µM
CC[C@]12C=CCN3CC[C@]4(C(=C(C(=O)OC)C1)Nc1cc5c(cc14)[C@@H]1[C@H](O5)[C@@H](O)[C@@]4(CC)CC(C(=O)OC)=C5Nc6ccccc6[C@@]56CCN1[C@@H]46)[C@@H]32	1.05 µM and 1.13 µM	7.05 µM and 11.9 µM	0.0922 µM and 0.146 µM	25 µM and > 100 µM	0.0964 µM and 0.26 µM	3.37 µM and 1.42 µM	0.467 µM and 0.318 µM		0.435 µM and 0.776 µM	25 µM and 16.2 µM	0.202 µM and 0.312 µM	2.75 µM and 5.33 µM	0.0729 µM and 0.283 µM	0.788 µM and 1.17 µM	1.09 µM	25 µM	1.13 µM and 1.18 µM	25 µM and > 100 µM	0.39 µM	2.35 µM
Nc1c(C(=O)Nc2cccc(Cl)c2)sc2nc3c(cc12)C(O)CCC3 (stereo not drawn)	0.388 µM	16.8 µM	0.258 µM	28.6 µM	0.37 µM	> 100 µM	0.379 µM	13.6 µM	0.416 µM	25.2 µM	0.434 µM	23.6 µM	0.182 µM	13.6 µM	0.534 µM	22.2 µM	0.585 µM	48.6 µM	0.762 µM	52.1 µM
COc1ccccc1CNCCCN1C(=O)c2ccc3c4c(ccc(c24)C1=O)C(=O)N(CCCNCCCCNCCCN)C3=O	0.36 µM	1.5 µM	0.322 µM	> 23.2 µM	1.75 µM	5.73 µM	0.339 µM	1.3 µM	0.561 µM	5.23 µM	0.176 µM	0.362 µM	1.34 µM	3.14 µM	1.95 µM	11.1 µM	0.227 µM	0.591 µM	0.3 µM	1.57 µM
Cc1nc2ccc(-n3ncc(C(=O)c4cc5ccccc5[nH]4)c3N)cc2[nH]1	2.39 µM	40.6 µM	2.82 µM	31.2 µM	0.884 µM	36.6 µM	1.44 µM	> 100 µM	9.65 µM	> 100 µM	10.1 µM	33.3 µM	0.496 µM	54.3 µM	14 µM	> 100 µM	25.9 µM	88.5 µM	2.57 µM	15.2 µM
C=C(C(=O)c1ccccc1)C(NC(C)(C)C)c1ccccc1 (stereo not drawn)	2.15 µM	5.23 µM	1.56 µM	8.41 µM	1.88 µM	10 µM	2.2 µM	6.21 µM	3.26 µM	13 µM	0.308 µM	1.53 µM	1.7 µM	3.25 µM	3.76 µM	20.1 µM	1.88 µM	4.78 µM	1.46 µM	2.97 µM
Cc1cc(O)ccc1C1(c2ccc(O)cc2C)OC(=O)c2ccccc21	19.7 µM	40.4 µM	30.3 µM	> 100 µM	16.3 µM	30.7 µM	19.9 µM	36.6 µM	18 µM	35.6 µM	18.5 µM	35 µM	17.7 µM	33.3 µM	17.7 µM	32.8 µM	18.4 µM	33.8 µM	18.5 µM	37.7 µM
CCc1ccc(Oc2c(-c3ccc(OCCc4cccc(C(F)(F)F)c4)cc3O)n[nH]c2C(F)(F)F)cc1	1.67 µM	5.74 µM	3.06 µM	12 µM	1.96 µM	6.89 µM	1.81 µM	6.44 µM	3.7 µM	10.5 µM	1.88 µM	5.77 µM	5.93 µM	12.8 µM	6.57 µM	12.9 µM	6.54 µM	13.4 µM	1.94 µM	6.89 µM
COc1cc(-c2oc3c(OC)c(O)c(OC)c(O)c3c(=O)c2OC)cc(OC)c1OC		> 100 µM		> 100 µM		> 100 µM		> 100 µM		> 100 µM		81.8 µM		> 100 µM		> 100 µM		> 100 µM		> 100 µM
CC(C)c1cnc(-c2cc(Cl)ccc2F)cc1Nc1ccncc1C(=O)NC(CO)CO	12.5 µM	28.3 µM	16.2 µM	53.7 µM	12.9 µM	26.9 µM	14.9 µM	33.9 µM	13.8 µM	32.6 µM	13 µM	30.4 µM	2.28 µM	19.7 µM	19.8 µM	55.5 µM	18 µM	38.5 µM	13.7 µM	27.9 µM
Cc1ccc2ncnc(N(C)C3CCCCC3)c2c1	25.3 µM	> 100 µM	17.4 µM	44.9 µM	27 µM	88.7 µM	59.7 µM	> 100 µM	27.1 µM	87.4 µM	39 µM	> 100 µM	77.1 µM	> 100 µM	33.2 µM	> 100 µM	37.5 µM	> 100 µM	21.7 µM	68.3 µM
Cn1c2c(c3ccccc31)CCN1C[C@@H]3CCCC[C@H]3C[C@@H]21	3.34 µM	> 36.1 µM	2.96 µM	> 25.8 µM	2.55 µM	> 100 µM	2.51 µM	> 100 µM	3.31 µM	> 100 µM	1.74 µM	4.44 µM	2.08 µM	7.07 µM	2.82 µM	25.6 µM	5.8 µM	> 26.7 µM	2.99 µM	> 37.3 µM
CCOC(=O)c1c(C)n([O-])c2cc(F)c(F)cc2[n+]1=O	2.88 µM	15.9 µM	0.0482 µM	> 100 µM	0.455 µM	2.04 µM	1.51 µM	3.04 µM	1.65 µM	3.59 µM	1.04 µM	2.72 µM	15.9 µM	30 µM	1.93 µM	3.48 µM	2.8 µM		0.514 µM	1.63 µM
O=C(Cc1cc(O)ccc1O)NO	89.8 µM	> 100 µM	20.5 µM	52.6 µM	74.6 µM	> 100 µM	32.7 µM	> 100 µM	> 100 µM	> 100 µM	91.7 µM	> 100 µM	> 100 µM	> 100 µM	> 100 µM	> 100 µM	> 100 µM	> 100 µM	28.5 µM	80.9 µM
CCN1CCN(Cc2ccc(NC(=O)Nc3nc(-c4cc(OC)c(OC)c(OC)c4)cs3)cc2C(F)(F)F)CC1	1.65 µM	3.2 µM	1.2 µM	3.08 µM	1.41 µM	3.55 µM	1.37 µM	2.81 µM	1.64 µM	6.99 µM	1.65 µM	3.13 µM	1.96 µM	5.48 µM	1.71 µM	3.85 µM	1.9 µM	3.61 µM	2.18 µM	7.14 µM
